Tested on: H1 human embryonic stem cells
Experiment: Bioassay validation: activin A titration with or without Wnt3a, cell number and SOX17 intensity (Example 2)
Assay type: cell-based
Settings: with 20 ng/ml Wnt3a days 1-2, four-day assay
From the text: Activin A is an important mediator of differentiation in a broad range of cell types, including differentiation of embryonic stem cells to definitive endoderm. […] A bioassay that measures this differentiation in human embryonic stem cells was adapted in miniaturized format to 96-well plates for screening purposes. Validation was completed using treatment with commercial sources of activin A and Wnt3a recombinant proteins and measuring protein expression of the transcription factor SOX17, considered to be a representative marker of definitive endoderm.
Briefly, clusters of H1 human embryonic stem cells were grown on reduced growth factor […]™ (Invitrogen; Cat #356231)-coated tissue culture plastic. Cells were passaged using collagenase (Invitrogen; Cat #17104-019) treatment and gentle scraping, washed to remove residual enzyme, and plated in a ratio of 1:1 (surface area) on reduced growth factor […]™-coated 96-well black plates (Packard ViewPlates; Perkin Elmer; Cat #6005182). […]
Imaging was performed using an IN Cell Analyzer 1000 (GE Healthcare) utilizing the 51008bs dichroic for cells stained with Hoechst 33342 and Alexa Fluor 488. […] Segmentation for the nuclei was determined based on gray-scale levels (baseline range 100-300) and nuclear size. […]

## Activin A: recombinant human activin A (PeproTech), TGF-beta family member
  EC50 for induction of SOX17 expression: 0.03 to 0.05 µg/mL
  Optimal activin A effects for induction of SOX17 expression (concentration range): 100 to 200 ng/mL

Reference: patent US9593305B2, “Differentiation of pluripotent stem cells” (Janssen Biotech, Inc., priority 2008, dated 2017)
